# Measurements: US12458643B2, “Antidepressant/anxiolytic drug in which PAC1 receptor antagonist is used” (KAGOSHIMA UNIVERSITY, priority 2020, dated 2025)
# Columns and labels:
# [1] = tested on: single-restraint stress mice; test: Single-restraint stress-induced anxiety-like behavior, open field test; type: in vivo, mouse; details: 30 mg/kg i.p. 30 min before 30 min restraint; 10 min test
# Procedure: Male C57BL/6J mice (8 to 12 weeks old) were acclimatized to a laboratory (illuminance: 40 lx) for 60 minutes. Then, a vehicle (10% DMSO solution; dissolved in saline; n=11), PA-8 (30 mg/kg; n=11) or PA-81004 (30 mg/kg; n=8) was intraperitoneally administered thereto (0.1 mL/10 g). After a lapse of 30 minutes after administration, restraint stress (stress caused by holding the mice in tubes of 2.8 cm in diameter with a hole for breathing) was applied thereto for 30 minutes. The mice were allowed to freely explore an open field cage for 10 minutes from immediately after the completion of restraint. Mice that freely behaved in a home cage for 30 minutes without being held and without accessing water and food were used as a control (n=10). The results are shown in FIG. 9 (A: total distance traveled, B: the number of center zone entries, C: time spent in the center zone). The data was indicated by mean±standard error. **P<0.01, *P<0.05 (One-way ANOVA followed by Tukey-Kramer test). […] Male C57BL/6J mice (8 to 12 weeks old) were acclimatized to a laboratory (illuminance: 40 lx) for 60 minutes. Then, a vehicle (10% DMSO solution; dissolved in saline; n=10), PA-9 (30 mg/kg; n=13) or PA-915 (30 mg/kg; n=12) was intraperitoneally administered thereto (0.1 mL/10 g). After a lapse of 30 minutes after administration, restraint stress (stress caused by holding the mice in tubes of 2.8 cm in diameter with a hole for breathing) was applied thereto for 30 minutes. The mice were allowed to freely explore an open field cage for 10 minutes from immediately after the completion of restraint. Mice that freely behaved in a home cage for 30 minutes without being held and without accessing water and food were used as a control (n=10). The results are shown in FIG. 11 (A: total distance traveled, B: the number of center zone entries, C: time spent in the center zone). The data was indicated by mean±standard error. **P<0.01, *P<0.05 (One-way ANOVA followed by Tukey-Kramer test).
# [2] = tested on: chronic social defeat stress mice; test: Chronic social defeat stress, sucrose preference test; type: in vivo, mouse; details: for sustained effect on reduced sucrose preference: 8, 15, 29, 57 days after single i.p. dose (PA-915 30 mg/kg, ketamine 20 mg/kg), fluoxetine: after withdrawal of 14-day administration
# Procedure: In a sucrose preference test, mice are exposed to a sucrose solution and regular water contained in bottles at the same time. Normal mice prefer to drink the sweet sucrose solution, whereas depressed mice drink the sucrose solution at a decreased ratio.
# (§1) Chronic social defeat stress was applied at 10 min/day for 10 days (Days 1 to 10) to male C57BL/6N mice (8 to 12 weeks old) each reared in isolation for 10 days or longer. On Day 11, SPAT was conducted, and susceptible mice were selected. A vehicle (10% DMSO solution; dissolved in saline; n=11) or PA-8 (30 mg/kg; n=9) was intraperitoneally administered once daily (0.1 mL/10 g) for 7 consecutive days from day 12. The sucrose preference test was conducted (a sucrose preference ratio was studied for 17 hours) 30 minutes after the final administration on the 7th day (Day 18). Mice reared for 10 days in a home cage without chronic social defeat stress load were used as a control (n=10). The data was indicated by mean±standard error. *P<0.05 (One-way ANOVA followed by Tukey-Kramer test).
# as §1, with “PA-9” for “PA-8”, “n=9 or 8)” for “n=9)”, “after administration on” for “after”, “first day (Day 12) and” for “final administration”, “18). […]” for “18).”
# Chronic social defeat stress was applied at 10 min/day for 10 days (Days 1 to 10) to male C57BL/6N mice (8 to 12 weeks old) each reared in isolation for 10 days or longer. On Day 11, SPAT was conducted, and susceptible mice were selected. On the next day (Day 12), a vehicle (10% DMSO solution; dissolved in saline; n=11) or PA-915 (30 mg/kg; n=10) was intraperitoneally administered (0.1 mL/10 g) to the mice. The sucrose preference test was conducted (a sucrose preference ratio was studied for 17 hours) from 30 minutes after administration. Mice reared for 10 days in a home cage without chronic social defeat stress load were used as a control (n=15). The data was indicated by mean±standard error. *P<0.05 (One-way ANOVA followed by Tukey-Kramer test).
# Chronic social defeat stress was applied at 10 min/day for 10 days (Days 1 to 10) to male C57BL/6N mice (8 to 12 weeks old) each reared in isolation for 10 days or longer. On Day 11, the social preference or avoidance test (SPAT) was conducted, and susceptible mice were selected. On the next day (Day 12), a vehicle (V: 10% DMSO solution; dissolved in saline; n=17), PA-915 (P: 30 mg/kg; n=15), ketamine (K: 20 mg/kg; n=15) or fluoxetine (F: 20 mg/kg; n=16, n=15 only on Day 69) was intraperitoneally administered (0.1 mL/10 g) to the mice. The sucrose preference test was conducted 24 hours later (Day 13), 8 days later (Day 20), 15 days later (Day 27), 29 days later (Day 41), and 57 days later (Day 69) (a sucrose preference ratio was studied on each day from 5:00 p.m. of the previous day to 10:00 a.m. of the day). However, for the fluoxetine administration group, consecutive administration (F: 20 mg/kg, intraperitoneal administration (0.1 mL/10 g)) was performed for 14 days from Day 12 to Day 26. Mice reared for 10 days in a home cage without chronic social defeat stress load were used as a control (n=22). The data was indicated by mean±standard error. **P<0.01; *P<0.05 (One-way ANOVA followed by Tukey-Kramer test). […]
# [3] = chronic social defeat stress, 30 mg/kg i.p. once daily for 7 days, test 30 min after final administration (Day 18)
# [4] = Example 19, single i.p. dose (PA-915 30 mg/kg, ketamine 20 mg/kg, fluoxetine 20 mg/kg), 24 hours later (Day 13)
Structure (SMILES),effect on single-restraint stress-induced anxiety-like behavior (open field test) [1],"effect on reduced sucrose preference [2, 3]","effect on reduced sucrose preference ([2]; chronic social defeat stress, 30 mg/kg i.p. single dose (Day 12), test from 30 min after administration, 17 hours)",sustained effect on reduced sucrose preference ([2]; Example 19),"effect on reduced sucrose preference ([2]; Example 19, fluoxetine 20 mg/kg i.p. 14-day consecutive administration (Day 12 to Day 26))","effect on reduced sucrose preference [2, 4]"
C=CCOc1ccc(C2CC(=O)Nc3nc(N)[nH]c(=O)c32)cc1OC (centres unmarked) [PA-8],improving effects,improving effect,,,,
O=C(NCCc1c[nH]cn1)C1CC(=O)N(c2n[nH]c3ccccc23)C1 (centres unmarked) [PA-9],improving effects,its effect was also sustained after repeated administration for 7 days,improved sucrose preference even by single-dose administration,,,
"Nc1nc2c(c(=O)[nH]1)C(c1cccc(OC(F)(F)F)c1)CC(=O)N2 (centres unmarked) [PA-81004, 2-Amino-5-(3-trifluoromethoxyphenyl)-5,8-dihydro-3H,6H-pyrido[2,3-d]pyrimidine-4,7-dione]",improving effects,,,,,
CNCCC(Oc1ccc(C(F)(F)F)cc1)c1ccccc1 (centres unmarked) [fluoxetine],,,,its effectiveness was not maintained after drug withdrawal,improved reduced sucrose preference,did not improve sucrose preference
CNC1(c2ccccc2Cl)CCCCC1=O (centres unmarked) [ketamine],,,,"maintained its effectiveness 8, 15, 29, and 57 days later",,improved reduced sucrose preference in a fast-acting manner
